According to US10961202B2, “Bis-benzimidazole compounds and methods of using the same” (THE SCRIPPS RESEARCH INSTITUTE, priority 2017, dated 2021):

Test system: r(CUG)12-MBNL1 complex
Assay: Inhibition of the r(CUG)12-MBNL1 complex measured by TR-FRET
Assay type: biochemical
Conditions: Table L; 80 nM RNA, 60 nM MBNL1-His6

SMILES | IC50
Nc1ccc(-c2nc3cc(-c4ccc5[nH]c(-c6ccc(N)cc6)nc5c4)ccc3[nH]2)cc1 [Compound 95, 4,4′-(1H,1′H-[5,5′-bibenzo[d]imidazole]-2,2′-diyl)dianiline] | 106 µM
CNCCNC(=O)c1ccc(-c2nc3cc(-c4ccc5[nH]c(-c6ccc(C(=O)NCCN(C)C)cc6)nc5c4)ccc3[nH]2)cc1 [Compound 110, N-(2-(dimethylamino)ethyl)-4-(2′-(4-((2-(methylamino)ethyl)carbamoyl)phenyl)-1H,1′H-[5,5′-bibenzo[d]imidazol]-2-yl)benzamide] | 6.9 µM
CN1CCN(CCNC(=O)c2ccc3nc(-c4ccc(-c5nc6ccc(C(=O)NCCN7CCN(C)CC7)cc6[nH]5)cc4)[nH]c3c2)CC1 [Compound 45, 2,2′-(1,4-phenylene)bis(N-(2-(4-methylpiperazin-1-yl)ethyl)-1H-benzo[d]imidazole-6-carboxamide)] | 18.2 µM
Cn1c(-c2ccc(-c3nc4ccc(Br)cc4n3C)cc2)nc2ccc(Br)cc21 [Compound 90, 1,4-bis(6-bromo-1-methyl-1H-benzo[d]imidazol-2-yl)benzene] | > 200 µM
CCOC(CNC(=N)Nc1ccc2nc(-c3ccc(-c4nc5ccc(N)cc5[nH]4)cc3)[nH]c2c1)OCC [Compound 17, 1-(2-(4-(5-amino-1H-benzo[d]imidazol-2-yl)phenyl)-1H-benzo[d]imidazol-5-yl)-3-(2,2-diethoxyethyl)guanidine] | 37 µM

Second part, the compound after the results:

IC50 | SMILES
18.3 µM | NCCNC(=O)c1ccc2nc(-c3ccc(-c4nc5ccc(C(=O)NCCN)cc5[nH]4)cc3)[nH]c2c1 [Compound 30, 2,2′-(1,4-phenylene)bis(N-(2-aminoethyl)-1H-benzo[d]imidazole-6-carboxamide)]
27 µM | CN(C)CCNC(=O)Nc1ccc2nc(-c3ccc(-c4nc5ccc(NC(=O)NCCN(C)C)cc5[nH]4)cc3)[nH]c2c1 [Compound 64]
> 200 µM | Cn1c(-c2ccc(-c3nc4ccc(NC(=N)N)cc4n3C)cc2)nc2ccc(NC(=N)N)cc21 [Compound 88]
> 200 µM | CC(C)(C)OC(=O)N1CCN(CCNC(=O)c2ccc3nc(-c4ccc(-c5nc6ccc(C(=O)NCCN7CCN(C(=O)OC(C)(C)C)CC7)cc6[nH]5)cc4)[nH]c3c2)CC1 [Compound 46, di-tert-butyl 4,4′-(((2,2′-(1,4-phenylene)bis(1H-benzo[d]imidazole-6,6′-carbonyl))bis(azanediyl))bis(ethane-2,1-diyl))bis(piperazine-1-carboxylate)]
> 200 µM | Cn1c(-c2ccc(-c3nc4cc(N)ccc4n3C)cc2)nc2cc(N)ccc21 [Compound 83, 2,2′-(1,4-phenylene)bis(1-methyl-1H-benzo[d]imidazol-5-amine)]
169 µM | c1ccc(Nc2ccc3nc(-c4ccc(-c5nc6ccc(Nc7ccccn7)cc6[nH]5)cc4)[nH]c3c2)nc1 [Compound 22, 2,2′-(1,4-phenylene)bis(N-(pyridin-2-yl)-1H-benzo[d]imidazol-5-amine)]
> 200 µM | Cn1c(-c2ccc(-c3nc4ccccc4n3C)cc2)nc2ccccc21 [Compound 82]

Same assay, conditions: Table M; 80 nM RNA, 60 nM MBNL1-His6

SMILES | IC50
Oc1ccc2nc(-c3ccc(-c4nc5ccc(O)cc5[nH]4)cc3)[nH]c2c1 [Compound 190, 2,2′-(1,4-phenylene)bis(1H-benzo[d]imidazol-6-ol)] | 179 µM
CN1CCC[C@H]1COc1ccc2nc(-c3ccc(-c4nc5ccc(OC[C@@H]6CCCN6C)cc5[nH]4)cc3)[nH]c2c1 [Compound 199] | 47.8 µM
CCCOc1cc(-c2nc3cc(OCCCN(C)C)ccc3[nH]2)c(OCCC)cc1-c1nc2cc(OCCCN(C)C)ccc2[nH]1 [Compound 332] | 27.2 µM
CN(C)Cc1ccc(COc2ccc3nc(-c4ccc(-c5nc6ccc(OCc7ccc(CN(C)C)cc7)cc6[nH]5)cc4)[nH]c3c2)cc1 [Compound 217] | 51.9 µM
CN(C)CCCOc1ccc2nc(-c3ccc(-c4nc5ccc(OCCCN(C)C)cc5[nH]4)c(Br)c3)[nH]c2c1 [Compound 294, 3,3′-(2,2′-(2-bromo-1,4-phenylene)bis(3H-benzo[d]imidazole-5,2-diyl))bis(oxy)bis(N,N-dimethylpropan-1-amine)] | 18.4 µM
CCCCOc1cc(-c2nc3cc(OCCCN(C)C)ccc3[nH]2)c(OCCCC)cc1-c1nc2cc(OCCCN(C)C)ccc2[nH]1 [Compound 333] | 46.9 µM
CN(C)CCOCCOc1ccc(-c2nc3cc(-c4ccc5[nH]c(-c6ccc(O)cc6)nc5c4)ccc3[nH]2)cc1 [Compound 368] | 18 µM
CN(C)CCNC(=O)c1ccc(-c2nc3cc(-c4ccc5[nH]c(-c6ccc(C(=O)NCCCCCCCNC(=O)c7ccc(-c8nc9cc(-c%10ccc%11[nH]c(-c%12ccc(C(=O)NCCN(C)C)cc%12)nc%11c%10)ccc9[nH]8)cc7)cc6)nc5c4)ccc3[nH]2)cc1 [Compound 421] | 14.8 µM
CN(C)CCNC(=O)c1ccc(-c2nc3ccc(-c4ccc5nc(-c6ccc(C(=O)N7CCC(CCCC8CCN(C(=O)c9ccc(-c%10nc%11ccc(-c%12ccc%13nc(-c%14ccc(C(=O)NCCN(C)C)cc%14)[nH]c%13c%12)cc%11[nH]%10)cc9)CC8)CC7)cc6)[nH]c5c4)cc3[nH]2)cc1 [Compound 427] | 3.23 µM
CN(C)CCCOc1ccc2nc(-c3ccc(-c4nc5ccc(OCCCC(=O)NCCN(C)C)cc5[nH]4)cc3)[nH]c2c1 [Compound 318] | > 200 µM
CN(C)CCNC(=O)c1ccc2nc(-c3ccc(-c4nc5ccc(C(=O)O)cc5[nH]4)cc3)[nH]c2c1 [Compound 319] | > 200 µM
CN(C)CCNC(=O)c1ccc(-c2nc3cc(-c4ccc5[nH]c(-c6ccc(C(=O)NCCCCNC(=O)c7ccc(-c8nc9cc(-c%10ccc%11[nH]c(-c%12ccc(C(=O)NCCN(C)C)cc%12)nc%11c%10)ccc9[nH]8)cc7)cc6)nc5c4)ccc3[nH]2)cc1 [Compound 420] | 6.32 µM
C[C@@H](NC(=O)CN(CCN)C(=O)c1ccc(-c2nc3cc(-c4ccc5[nH]c(-c6ccc(OCCCN(C)C)cc6)nc5c4)ccc3[nH]2)cc1)C(=O)N[C@H](C)C(=O)N[C@H](C)C(=O)N[C@H](C)C(=O)N(CCNC(=O)c1ccc(-c2nc3cc(-c4ccc5[nH]c(-c6ccc(OCCCN(C)C)cc6)nc5c4)ccc3[nH]2)cc1)CC(N)=O [Compound 447] | 22.6 µM
Cc1cc(-c2nc3cc(-c4ccc5[nH]c(-c6cc(C)c(OCCCN(C)C)c(C)c6)nc5c4)ccc3[nH]2)cc(C)c1OCCCN(C)C [Compound 360] | 21.2 µM
COCCOc1cc(-c2nc3cc(OCCCN(C)C)ccc3[nH]2)c(OC)cc1-c1nc2ccc(OCCCN(C)C)cc2[nH]1 [Compound 262, 3-((2-(4-(6-(3-(dimethylamino)propoxy)-1H-benzo[d]imidazol-2-yl)-2-methoxy-5-(2-methoxyethoxy)phenyl)-1H-benzo[d]imidazol-5-yl)oxy)-N,N-dimethylpropan-1-amine] | 55.5 µM
c1cc2nc(-c3ccc(-c4nc5ccc(OCCCN6CCCC6)cc5[nH]4)cc3)[nH]c2cc1OCCCN1CCCC1 [Compound 295] | 69.9 µM
CN(C)CCNC(=O)c1ccc(-c2nc3cc(-c4ccc5[nH]c(-c6ccc(C(=O)NC7CCCCC7NC(=O)c7ccc(-c8nc9cc(-c%10ccc%11[nH]c(-c%12ccc(C(=O)NCCN(C)C)cc%12)nc%11c%10)ccc9[nH]8)cc7)cc6)nc5c4)ccc3[nH]2)cc1 (stereo not drawn) [Compound 410] | 34.4 µM
c1cc2nc(-c3ccc(-c4nc5ccc(OCCN6CCOCC6)cc5[nH]4)cc3)[nH]c2cc1OCCN1CCOCC1 [Compound 186] | > 200 µM
CN(C)CCCOc1ccc2nc(-c3ccc(-c4nc5ccccc5[nH]4)cc3)[nH]c2c1 [Compound 246] | > 200 µM
C[C@H](C(=O)N(C)[C@H](C)C(=O)N(C)[C@H](C)C(=O)N(C)[C@H](C)C(=O)N(CCCn1cc(COCCOCCOCCOCCNC(=O)c2ccc(-c3nc4ccc(-c5ccc6nc(-c7ccc(C(=O)NCCN(C)C)cc7)[nH]c6c5)cc4[nH]3)cc2)nn1)CC(N)=O)N(C)C(=O)CNCCCn1cc(COCCOCCOCCOCCNC(=O)c2ccc(-c3nc4ccc(-c5ccc6nc(-c7ccc(C(=O)NCCN(C)C)cc7)[nH]c6c5)cc4[nH]3)cc2)nn1 [Compound 431] | > 200 µM
CN(C)CCNC(=O)c1ccc(-c2nc3cc(-c4ccc5[nH]c(-c6ccc(C(=O)NCCN(C)CCCCc7cn(CCCNC(=O)CCC(=O)NCCCN=[N+]=[N-])nn7)cc6)nc5c4)ccc3[nH]2)cc1 [Compound 345] | 33.5 µM

Results, then the compound that gave them:

IC50 | SMILES
> 200 µM | CN1C(C)(C)CC(Oc2ccc(-c3nc4cc(-c5ccc6[nH]c(-c7ccc(OC8CC(C)(C)N(C)C(C)(C)C8)cc7)nc6c5)ccc4[nH]3)cc2)CC1(C)C [Compound 366]
154 µM | CN1CCC(NC(=O)c2ccc(-c3nc4cc(-c5ccc6[nH]c(-c7ccc(C(=O)O)cc7)nc6c5)ccc4[nH]3)cc2)CC1 [Compound 344]
11.2 µM | CN(C)CCOc1ccc(-c2nc3cc(-c4ccc5[nH]c(-c6cccc(OCCN(C)C)c6)nc5c4)ccc3[nH]2)cc1 [Compound 355]
42.6 µM | CN(C)CCCOc1ccc2nc(-c3ccc(-c4nc5ccc(OCCCN(C)C)cc5[nH]4)c([N+](=O)[O-])c3)[nH]c2c1 [Compound 288, 3,3′-(((2-nitro-1,4-phenylene)bis(1H-benzo[d]imidazole-2,6-diyl))bis(oxy))bis(N,N-dimethylpropan-1-amine)]
2.5 µM | CN(C)CCNC(=O)c1ccc(-c2nc3ccc(-c4ccc5nc(-c6ccc(C(=O)N(C)CCCN(C)CCCN(C)C(=O)c7ccc(-c8nc9ccc(-c%10ccc%11nc(-c%12ccc(C(=O)NCCN(C)C)cc%12)[nH]c%11c%10)cc9[nH]8)cc7)cc6)[nH]c5c4)cc3[nH]2)cc1 [Compound 449]
> 200 µM | CN(C)CCCOc1ccc2nc(-c3ccc(-c4nc5ccc(OCCCN(C)C)cc5n4C)cc3)[nH]c2c1 [Compound 312]
26 µM | CN(C)CCCOc1ccc2nc(-c3ccc(-c4nc5ccc(C(=O)NCCN6CCCCC6)cc5[nH]4)cc3)[nH]c2c1 [Compound 237, 2-(4-(6-(3-(dimethylamino)propoxy)-1H-benzo[d]imidazol-2-yl)phenyl)-N-(2-(piperidin-1-yl)ethyl)-1H-benzo[d]imidazole-6-carboxamide]
39.8 µM | NCc1cccc(Oc2ccc3nc(-c4ccc(-c5nc6ccc(Oc7cccc(CN)c7)cc6[nH]5)cc4)[nH]c3c2)c1 [Compound 234, (((2,2′-(1,4-phenylene)bis(1H-benzo[d]imidazole-6,2-diyl))bis(oxy))bis(3,1-phenylene))dimethanamine]
22.4 µM | C#CCCNC(=O)CCCOc1ccc2[nH]c(-c3ccc(-c4nc5cc(OCCCN(C)C)ccc5[nH]4)cc3)nc2c1 [Compound 321]
